# Assay results as given in patent US8889711B2, “Pyrazolopyridine derivatives as anticancer agent” (Pierre Fabre Medicament, priority 2009, dated 2014).
# Target: ALK kinase (Homo sapiens, UniProt Q9UM73)
# Experiment: Test to measure ALK kinase inhibition (GST-PLCγ1 substrate, anti-phosphotyrosine ELISA, luminescence)
# Format: biochemical
# Conditions: ALK kinase 180 ng/ml, 250 μM ATP, 30 minutes at 30° C.
# Procedure: Test to Measure ALK Kinase Inhibition
# A ViewPlate (Packard) is incubated with the GST-PLCγ1 substrate (purified recombinant form) at 0.1 mg/ml in phosphate buffer (PBS pH 7.4)(100 μl/well) for one hour under shaking. The plate is then saturated with a blocking solution containing 5% bovine serum albumin (BSA) (SIGMA) in PBS buffer pH 7.4.
# After adding the inhibitor at the desired final concentration (usual range of 30 μM to 10 nM), the reaction is conducted by adding the ALK kinase at 180 ng/ml in 13 mM Tris reaction buffer pH 7.5 (SIGMA); 6.5 mM MgCl2 (MERCK); 0.65 mM DiThioThreitol (DTT) (ACROS); 39 mM sodium β-glycerophosphate (TCI); 0.65 mM sodium orthovanadate (SIGMA) and 250 μM ATP (SIGMA). Incubation is carried out for 30 minutes at 30° C. under shaking.
# After three washings under shaking in 0.1% PBS/Tween-20 buffer (SIGMA), an anti-phosphotyrosine antibody coupled with HRP (UBI) diluted to 1/1000th in PBS/BSA buffer 5 mg/ml, is incubated for one hour under shaking. After three further washings in 0.1% PBS/Tween-20, the wells are incubated two minutes with 100 μl of SuperSignal ELISA mixture (PIERCE).
# The signal is read in luminescent mode using a luminometer (MOLECULAR DEVICES SpectraMax M5e).
# Sequence of ALK kinase (Q9UM73 19-1620): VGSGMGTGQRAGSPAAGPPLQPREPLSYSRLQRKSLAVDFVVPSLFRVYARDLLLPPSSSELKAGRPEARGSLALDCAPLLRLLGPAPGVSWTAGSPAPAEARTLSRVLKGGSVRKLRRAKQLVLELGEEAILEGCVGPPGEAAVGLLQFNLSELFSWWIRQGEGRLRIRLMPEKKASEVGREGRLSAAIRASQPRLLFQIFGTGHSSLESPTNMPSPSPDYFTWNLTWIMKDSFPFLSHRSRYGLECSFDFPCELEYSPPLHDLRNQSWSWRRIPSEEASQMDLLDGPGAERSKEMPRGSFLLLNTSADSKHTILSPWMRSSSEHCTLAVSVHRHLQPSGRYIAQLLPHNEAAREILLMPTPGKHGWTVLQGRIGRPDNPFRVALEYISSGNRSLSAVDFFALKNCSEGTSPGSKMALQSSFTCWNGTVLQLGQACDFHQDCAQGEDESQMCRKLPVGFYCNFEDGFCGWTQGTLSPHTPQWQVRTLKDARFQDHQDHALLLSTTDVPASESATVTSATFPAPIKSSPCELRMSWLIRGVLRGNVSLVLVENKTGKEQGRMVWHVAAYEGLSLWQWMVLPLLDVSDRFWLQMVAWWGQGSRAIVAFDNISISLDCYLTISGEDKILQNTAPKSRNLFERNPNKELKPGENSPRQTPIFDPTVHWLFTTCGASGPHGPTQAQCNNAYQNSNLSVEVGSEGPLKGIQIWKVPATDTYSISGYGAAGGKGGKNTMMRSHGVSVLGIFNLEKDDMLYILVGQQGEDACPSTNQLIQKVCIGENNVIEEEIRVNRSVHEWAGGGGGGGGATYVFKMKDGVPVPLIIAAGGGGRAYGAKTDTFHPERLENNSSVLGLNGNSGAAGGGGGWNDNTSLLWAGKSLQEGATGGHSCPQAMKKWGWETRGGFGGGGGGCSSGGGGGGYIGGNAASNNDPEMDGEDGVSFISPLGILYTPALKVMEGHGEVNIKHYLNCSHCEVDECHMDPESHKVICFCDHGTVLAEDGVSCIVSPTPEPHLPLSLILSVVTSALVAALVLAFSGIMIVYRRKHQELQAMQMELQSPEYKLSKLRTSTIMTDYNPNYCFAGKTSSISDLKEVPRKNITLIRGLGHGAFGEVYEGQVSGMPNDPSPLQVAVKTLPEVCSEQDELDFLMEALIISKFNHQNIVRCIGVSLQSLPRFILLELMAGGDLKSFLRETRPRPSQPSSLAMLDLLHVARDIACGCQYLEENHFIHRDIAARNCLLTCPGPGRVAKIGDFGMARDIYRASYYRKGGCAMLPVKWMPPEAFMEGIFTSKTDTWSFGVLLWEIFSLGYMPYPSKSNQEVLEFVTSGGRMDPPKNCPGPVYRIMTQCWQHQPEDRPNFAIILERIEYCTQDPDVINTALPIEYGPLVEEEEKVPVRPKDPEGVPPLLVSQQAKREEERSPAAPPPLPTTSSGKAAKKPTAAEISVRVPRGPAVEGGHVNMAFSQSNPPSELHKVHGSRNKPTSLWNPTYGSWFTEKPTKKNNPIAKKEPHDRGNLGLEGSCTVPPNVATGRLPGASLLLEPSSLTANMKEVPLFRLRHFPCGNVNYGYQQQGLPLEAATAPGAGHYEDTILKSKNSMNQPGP
row,Compound,IC50 [nM]
1,Cc1n[nH]c2nc(-c3ccc(O)cc3F)c(C#N)c(-c3csc(C4CCNCC4)n3)c12 [Compound 165],100 to 1000
2,Cc1n[nH]c2nc(-c3ccc(O)cc3F)c(C#N)c(-c3cnc(N4CCN(C)CC4)s3)c12 [Compound 167],100 to 1000
3,Cc1n[nH]c2nc(-c3ccc(O)cc3F)c(C#N)c(C(=O)NC3CCNCC3)c12 [Compound 168],1000 to 10000
4,Cc1n[nH]c2nc(-c3ccc(O)cc3F)c(C#N)c(-c3ccc(N4CCOCC4)o3)c12 [Compound 171],100 to 1000
5,Cc1n[nH]c2nc(-c3ccc(O)cc3F)c(C#N)c(-c3ccc(N4CCNCC4)o3)c12 [Compound 172],100 to 1000
6,Cc1n[nH]c2nc(-c3ccc(O)c(Br)c3)c(C#N)c(-c3ccc(N4CCNCC4)cc3)c12 [Compound 175],100 to 1000
7,Cc1cc(-c2nc3[nH]nc(C)c3c(-c3ccc(N4CCNCC4)cc3)c2C#N)ccc1O [Compound 176],100 to 1000
8,COc1cc(-c2c(C#N)c(-c3ccc(O)cc3F)nc3[nH]nc(C)c23)ccc1OCCCN(C)C [Compound 177],100 to 1000
9,N#Cc1c(-c2ccc(O)cc2F)nc2[nH]nc(N)c2c1-c1ccc(C2=CCNCC2)cc1 [Compound 186],< 100
10,Cc1cc(O)ccc1-c1nc2[nH]nc(C)c2c(-c2ccc(N3CCNCC3)cc2)c1C#N [Compound 189],100 to 1000
11,CN(C)CCCN(C)c1ccc(-c2c(C#N)c(-c3ccc(O)cc3F)nc3[nH]nc(N)c23)cc1 [Compound 191],< 100
12,N#Cc1c(-c2ccc(O)c(Cl)c2)nc2[nH]nc(N)c2c1-c1ccc(N2CCNCC2)cc1 [Compound 192],< 100
13,N#Cc1c(-c2ccc(O)cc2F)nc2[nH]nc(N)c2c1-c1ccc(N2CCNCC2)c(F)c1 [Compound 193],< 100
14,CN(C)CCCOc1ccc(-c2c(C#N)c(-c3ccc(O)cc3F)nc3[nH]nc(N)c23)cc1 [Compound 194],< 100
15,N#Cc1c(-c2ccc(O)cc2F)nc2[nH]nc(N)c2c1-c1ccc(C2CCNCC2)cc1 [Compound 195],< 100
16,N#Cc1c(-c2ccc(O)cc2F)nc2[nH]nc(-c3cccs3)c2c1-c1ccc(N2CCNCC2)cc1 [Compound 196],1000 to 10000

# Second part, the compound after the results:
row,IC50 [nM],Compound
1,< 100,Cc1n[nH]c2nc(-c3ccc(O)cc3F)c(C#N)c(-c3ccc(N4CCC(N5CCN(C)CC5)CC4)o3)c12 [Compound 169]
2,< 100,Cc1n[nH]c2nc(-c3ccc(O)cc3F)c(C#N)c(-c3ccc(OCCCN(C)C)cc3)c12 [Compound 178]
3,< 100,Cc1n[nH]c2nc(-c3ccc(O)c(Cl)c3)c(C#N)c(-c3ccc(N4CCNCC4)cc3)c12 [Compound 180]
4,< 100,N#Cc1c(-c2ccc(O)cc2F)nc2[nH]nc(N)c2c1-c1ccc(N2CCNCC2)cc1F [Compound 181]
5,< 100,Cc1n[nH]c2nc(-c3ccc(O)cc3F)c(C#N)c(-c3ccc(N4CCNCC4)cc3)c12 [Compound 182]
6,< 100,N#Cc1c(-c2ccc(O)cc2F)nc2[nH]nc(N)c2c1-c1ccc(N2CCOCC2)o1 [Compound 183]
7,< 100,Cc1n[nH]c2nc(-c3ccc(O)cc3F)c(C#N)c(-c3ccc(N4CCN(C)CC4)s3)c12 [Compound 184]
8,< 100,Cc1cc(-c2nc3[nH]nc(N)c3c(-c3ccc(N4CCNCC4)cc3)c2C#N)ccc1O [Compound 187]
9,< 100,N#Cc1c(-c2ccc(O)cc2F)nc2[nH]nc(N)c2c1-c1ccc(N2CC[C@H](N)C2)cc1 [Compound 188]
10,< 100,N#Cc1c(-c2ccc(O)cc2F)nc2[nH]nc(N)c2c1-c1ccc(N2CCC(N)CC2)o1 [Compound 190]

# Test system: karpas 299 cells
# Experiment: Measurement of inhibition of cell proliferation (Karpas), ATPlite
# Format: cell-based
# Conditions: 72 hours
# Procedure: Measurement of Inhibition of Cell Proliferation (Karpas):
# The antiproliferative activities of the compounds were measured using the ATPlite technique (Perkin Elmer).
# The non-adhering cells (karpas 299) are seeded in 96-well plates (300 000 cells/ml) on Day 1 at a concentration compatible with logarithmic growth for 72 hours required for evaluation of the compounds. All the cells are treated on Day 1, then placed in an incubator at 37° C. under 5% CO2 atmosphere. Cell viability is evaluated on Day 4 by assay of released ATP, characteristic of viable cells. The IC50 values are determined by non-linear regression on the basis of a sigmoid model of dose/response relationship, Hill's slope coefficient being left variable, performed using GraphPad software sequence with the supplied algorithm.
row,IC50 [nM],Compound
1,1000 to 10000,Cc1n[nH]c2nc(-c3ccc(O)cc3F)c(C#N)c(-c3csc(C4CCNCC4)n3)c12 [Compound 165]
2,100 to 1000,Cc1n[nH]c2nc(-c3ccc(O)cc3F)c(C#N)c(-c3ccc(N4CCC(N5CCN(C)CC5)CC4)o3)c12 [Compound 169]
3,1000 to 10000,Cc1n[nH]c2nc(-c3ccc(O)cc3F)c(C#N)c(-c3ccc(N4CCNCC4)cc3)c12 [Compound 182]

# Same assay, conditions: Homo sapiens, KARPAS-299, 72 h
row,Compound,IC50 [nM]
1,Cc1n[nH]c2nc(-c3ccc(O)cc3F)c(C#N)c(-c3cnc(N4CCN(C)CC4)s3)c12 [Compound 167],1000 to 10000
2,Cc1n[nH]c2nc(-c3ccc(O)cc3F)c(C#N)c(C(=O)NC3CCNCC3)c12 [Compound 168],> 10000
3,Cc1n[nH]c2nc(-c3ccc(O)cc3F)c(C#N)c(-c3ccc(N4CCOCC4)o3)c12 [Compound 171],100 to 1000
4,Cc1n[nH]c2nc(-c3ccc(O)cc3F)c(C#N)c(-c3ccc(N4CCNCC4)o3)c12 [Compound 172],1000 to 10000
5,Cc1n[nH]c2nc(-c3ccc(O)c(Br)c3)c(C#N)c(-c3ccc(N4CCNCC4)cc3)c12 [Compound 175],1000 to 10000
6,Cc1cc(-c2nc3[nH]nc(C)c3c(-c3ccc(N4CCNCC4)cc3)c2C#N)ccc1O [Compound 176],100 to 1000
7,COc1cc(-c2c(C#N)c(-c3ccc(O)cc3F)nc3[nH]nc(C)c23)ccc1OCCCN(C)C [Compound 177],1000 to 10000
8,N#Cc1c(-c2ccc(O)cc2F)nc2[nH]nc(N)c2c1-c1ccc(C2=CCNCC2)cc1 [Compound 186],1000 to 10000
9,Cc1cc(O)ccc1-c1nc2[nH]nc(C)c2c(-c2ccc(N3CCNCC3)cc2)c1C#N [Compound 189],1000 to 10000
10,CN(C)CCCN(C)c1ccc(-c2c(C#N)c(-c3ccc(O)cc3F)nc3[nH]nc(N)c23)cc1 [Compound 191],1000 to 10000
11,N#Cc1c(-c2ccc(O)c(Cl)c2)nc2[nH]nc(N)c2c1-c1ccc(N2CCNCC2)cc1 [Compound 192],1000 to 10000
12,N#Cc1c(-c2ccc(O)cc2F)nc2[nH]nc(N)c2c1-c1ccc(N2CCNCC2)c(F)c1 [Compound 193],1000 to 10000
13,CN(C)CCCOc1ccc(-c2c(C#N)c(-c3ccc(O)cc3F)nc3[nH]nc(N)c23)cc1 [Compound 194],100 to 1000
14,N#Cc1c(-c2ccc(O)cc2F)nc2[nH]nc(N)c2c1-c1ccc(C2CCNCC2)cc1 [Compound 195],1000 to 10000
15,N#Cc1c(-c2ccc(O)cc2F)nc2[nH]nc(-c3cccs3)c2c1-c1ccc(N2CCNCC2)cc1 [Compound 196],100 to 1000

# Now from value to compound:
row,IC50 [nM],Compound
1,100 to 1000,Cc1n[nH]c2nc(-c3ccc(O)cc3F)c(C#N)c(-c3ccc(OCCCN(C)C)cc3)c12 [Compound 178]
2,100 to 1000,Cc1n[nH]c2nc(-c3ccc(O)c(Cl)c3)c(C#N)c(-c3ccc(N4CCNCC4)cc3)c12 [Compound 180]
3,1000 to 10000,N#Cc1c(-c2ccc(O)cc2F)nc2[nH]nc(N)c2c1-c1ccc(N2CCNCC2)cc1F [Compound 181]
4,1000 to 10000,N#Cc1c(-c2ccc(O)cc2F)nc2[nH]nc(N)c2c1-c1ccc(N2CCOCC2)o1 [Compound 183]
5,100 to 1000,Cc1n[nH]c2nc(-c3ccc(O)cc3F)c(C#N)c(-c3ccc(N4CCN(C)CC4)s3)c12 [Compound 184]
6,1000 to 10000,Cc1cc(-c2nc3[nH]nc(N)c3c(-c3ccc(N4CCNCC4)cc3)c2C#N)ccc1O [Compound 187]
7,1000 to 10000,N#Cc1c(-c2ccc(O)cc2F)nc2[nH]nc(N)c2c1-c1ccc(N2CC[C@H](N)C2)cc1 [Compound 188]
8,1000 to 10000,N#Cc1c(-c2ccc(O)cc2F)nc2[nH]nc(N)c2c1-c1ccc(N2CCC(N)CC2)o1 [Compound 190]
